{
  "source": "patent US20150071856A1",
  "about": "“ANTAGONISTIC PEPTIDES FOR FRIZZLED-1 AND FRIZZLED-2” (Universiteit Maastricht, priority 2013, published 2015)",
  "key": {"frizzled-2 (rFzd-2)": {"biological_target": "T1, frizzled-2 (rFzd-2) (Rattus norvegicus, UniProt Q08464)", "T1 construct": "expressed in transfected cells; host or cells: HEK293 superTOPflash (transient, Fugene6, pcDNA3.1/hygro)", "T1 sequence (Q08464 29-570)": "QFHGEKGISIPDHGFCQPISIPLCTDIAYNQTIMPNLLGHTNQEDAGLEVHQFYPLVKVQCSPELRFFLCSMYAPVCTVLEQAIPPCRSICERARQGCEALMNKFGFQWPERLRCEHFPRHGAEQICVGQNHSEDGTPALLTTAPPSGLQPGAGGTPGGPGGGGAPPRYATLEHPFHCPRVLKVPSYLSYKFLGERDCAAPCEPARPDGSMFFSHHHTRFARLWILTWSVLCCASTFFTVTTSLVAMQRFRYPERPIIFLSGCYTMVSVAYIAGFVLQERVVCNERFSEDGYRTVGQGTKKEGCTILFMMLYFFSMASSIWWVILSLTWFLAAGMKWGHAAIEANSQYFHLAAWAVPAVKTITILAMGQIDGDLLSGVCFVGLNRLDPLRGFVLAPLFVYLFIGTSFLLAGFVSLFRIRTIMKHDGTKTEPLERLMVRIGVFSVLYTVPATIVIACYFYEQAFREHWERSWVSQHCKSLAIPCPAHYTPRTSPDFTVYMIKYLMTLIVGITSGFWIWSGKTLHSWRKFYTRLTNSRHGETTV", "experiment": "Activity assay: luciferase reporter in HEK superTOPflash cells transfected with frizzled-2", "type": "cell-based", "experimental": "Human embryonic kidney (HEK) cells were used for screening. These cells have a luciferase construct stably transfected into the genome (see FIG. 2A), such that when the frizzled receptor is activated and β-catenin is increased, the luciferase is activated by transcription and light can be measured.\nThe peptides were tested by transfecting the frizzled-1 or the frizzled-2 receptor and addition of UM206(S-S) to the cell culture. For testing antagonistic activity, UM206 was added and the natural ligand Wnt3a was added, which is a natural stimulus for the canonical pathway.\nDay 2: Transfection 12-Well Plates • heat Fugene6 and DNA 15 minutes at RT • 2 ml serum-free medium in tube • add 3 μl fugene • add 2 μg DNA • incubate 30 minutes at RT • wash with PBS • add 50 μl transfectiemix • add 1 ml antibiotica-free medium\nDay 3: Add Conditioned Medium or UM206\nDay 4: Luciferase Activity Measurements • remove medium • wash with PBS • add 500 μl ⅕ lysisbuffer • shake for 60 minutes • centrifuge in tube • 20 μl lysaat and 50 μl luciferase in new tube for measurement • vortex • measure\nThree areas of high homology that contained two cysteines are underlined (UM207), (UM208) and (UM206). In FIGS. 9B through 9D, the inhibitory effect of these three peptides on Wnt3a-induced luciferase activity in HEK293-superTOPflash is shown. […] Again, the peptides by themselves had no effect on the luciferase activity.\nTo determine the inhibitory constant of UM206-8, HEK293-superTOPflash cells were transfected with either rFzd-1 or -2 and incubated with Wnt3a (10^−9M) in the presence of increasing concentrations of either of the peptides (FIG. 15). For UM206, a biphasic inhibition curve was observed that was best fitted with a two-binding-state model.\nThe cell lines were cultured in 75 cm^2 culture flasks (Corning, Schiphol, the Netherlands) in Dulbeco's modified essential medium with L-glutamine (2 mM), 10% fetal calf serum (Invitrogen, Merelbeke, Belgium), and 1% gentamycin (Sigma-Aldrich, Zwijndrecht, The Netherlands). Before starting the experiment, the cell lines were treated with plasmocin 25 μg/ml (Invivogen, Toulose, France) and tested with a mycoalert mycoplasma detection kit (Lonza, Rockland Me., USA). Cells were transiently transfected with Fugene6 (Roche, Indianapolis Ind., USA) with plasmid DNA, pcDNA3.1/hygro (Invitrogen) with frizzled-1/2/4 or Wnts 3a-5a or with pcDNA3.0 (Invitrogen) containing the β-catenin or frizzled-5 sequence. After transfection, the cells were cultured for 24 hours in conditioned medium, collected from the cultured L-cells, L-cells with Wnt3a or 5a (Invitrogen). At the same moment the antagonist was added."}, "[1]": {"tested_on": "mouse and human Fzd-1 and -2", "experiment": "Antagonism of activation of mouse and human Fzd-1 and -2 by Wnt3a (data not shown)", "type": "cell-based", "text": "In FIG. 3, Panel E, the efficacy of UM206 to block the Wnt3a-induced activation of luciferase activity in HEK293 superTOPflash cells transfected with different Fzds is shown."}, "C-FIT cells": {"tested_on": "C-FIT cells", "experiment": "Differentiation assay (α-SMA, fibroblast to myofibroblast) in C-FIT cells", "type": "cell-based, rat", "text": "For this assay, we used the same C-FIT cells as for the migration assay to study a second component of wound healing, namely, differentiation of fibroblasts into myofibroblasts. When wound healing starts, cells called fibroblasts migrate into the scar. These cells have no contractile properties; however, they can differentiate into myofibroblasts, which can actively contract. To study which signals influence the transition from fibroblast into myofibroblasts, we treated the C-FIT cells and harvested them for mRNA isolation. Next, we tested them for the presence of specific markers for myofibroblasts by reverse transcription of the mRNA and subsequent quantitative PCR analysis, which are absent in fibroblasts. One of those markers is α-smooth muscle actin, which makes the cells contract.\n(§1) RNA was isolated using the Trizol method (Invitrogen). For the RT-PCR, the RNA was transcribed to cDNA with Iscript™ cDNA synthesis kit (Bio-Rad, Hercules Calif., USA), Syber green (Eurogentec, Ghent, Belgium) was used for the detection of cDNA levels and cyclophilin served as the house keeping gene. In Supplementary methods panel 5, the primer sequences are shown."}, "infarct area": {"tested_on": "infarct area", "experiment": "Histological, qPCR and Western blot analysis of the infarct area in mice", "type": "in vivo", "text": "This was confirmed by histological analysis of the infarct area.\nas §1\nFor Western blot, cells were homogenized in ice-cold Laemmli buffer and protein content was measured using the BCA protein assay (Pierce Biotechnology Inc., Rockford Ill., USA); proteins were denatured by boiling, separated on a 10% SDS-page gel, and transferred onto a Hybond C nitrocellulose membrane (Amersham Biosciences, Little Chalfont, United Kingdom). After blocking, membranes were incubated overnight at 4° C. with primary antibodies against β-catenin, α-SMA (both 1:2000, BD Biosciences, Franklin Lakes N.J., USA) or β-actin (1:2000 Sigma-Aldrich). Anti-mouse immunoglobulin G 1/5000 (Vector Labs Inc.) was used as the secondary antibody, and the membranes were developed using the Supersignal West Pico chemiluminescence kit (Pierce). Images of the blots were analyzed with image analysis software (Qwin Leica, Cambridge, United Kingdom).\nOne-half of the hearts of the mice was embedded in paraffin and cut in 4 μm sections. The paraffin sections were rehydrated and washed in PBS. One section was stained with AZAN, allowing an accurate determination of the infarct size. To visualize the myofibroblasts in the infarct area, the sections were incubated with an antibody directed against α-smooth muscle actin (Sigma-Aldrich), followed by incubation with the peroxidase-conjugated secondary antibody (Vector laboratories). Nuclei were visualized by hematoxylin. Photos were taken with a Leica (CTR500, 63×/0.85) camera and analyzed with the Quantimet program (QWin/QGo). An examiner blinded to the groups of the animals obtained all measurements. For the experiments with Rhodamine-labeled UM206, frozen sections (4 μm) of mouse kidney and small intestine were used."}},
  "note": "“Also recorded” adds a separate entry of the source. Residues, ends and D or L forms follow the SMILES beside them.",
  "data": [
    {"smiles": "CSCC[C@H](NC(=O)CNC(=O)[C@H](CCC(=O)O)NC(=O)[C@H](CO)NC(=O)[C@@H](NC(=O)[C@H](CCCCN)NC(=O)[C@H](CC(N)=O)NC(=O)[C@H](CS)NC(C)=O)[C@@H](C)O)C(=O)N[C@@H](CC(=O)O)C(=O)NCC(=O)N[C@@H](CS)C(=O)N[C@@H](CCC(=O)O)C(=O)N[C@@H](CC(C)C)C(N)=O", "note": "[UM206, Ac-Cys-Asn-Lys-Thr-Ser-Glu-Gly-Met-Asp-Gly-Cys-Glu-Leu-NH2] (Ac-CNKTSEGMDGCEL-NH2)", "values": [
      {"measurement": "selectivity frizzled-2 over frizzled-1", "setting": "frizzled-2 (rFzd-2)", "result": "slightly more selective for frizzled-2 over frizzled-1"},
      {"measurement": "% of inhibition for Fzd-2", "setting": "frizzled-2 (rFzd-2); Wnt3a-induced luciferase activity, antagonists at 1.10^−9 M", "result": 75.06, "unit": "%"},
      {"measurement": "block of Wnt3a-induced luciferase activity, rFzd-2", "setting": "frizzled-2 (rFzd-2); peptide 1.10^−8 M", "result": "blocked almost completely; also recorded: abolished the induction of luciferase activity almost completely"},
      {"measurement": "antagonizing the activation of mouse and human Fzd-1 and -2 by Wnt3a", "setting": "[1]", "result": "fully effective"},
      {"measurement": "effect on Wnt3a/Wnt5a-induced differentiation, α-SMA levels", "setting": "C-FIT cells", "result": "completely blocks this differentiation"},
      {"measurement": "infarct area size versus saline", "setting": "infarct area; 2 and 5 weeks after MI", "result": "significantly smaller"},
      {"measurement": "thickness of the infarct area versus saline", "setting": "infarct area; 2 and 5 weeks after MI", "result": "significantly thicker"},
      {"measurement": "myofibroblast numbers in the infarct area versus saline", "setting": "infarct area; five weeks post-MI", "result": "significantly elevated number"},
      {"measurement": "blood vessels in the infarct area versus saline", "setting": "infarct area; five weeks treatment", "result": "increased amount of blood vessels"},
      {"measurement": "collagen levels in the infarct area versus saline", "setting": "infarct area; five weeks treatment", "result": "reduced collagen levels"},
      {"measurement": "α-SMA levels in infarcts versus saline", "setting": "infarct area; five-week-old infarcts, qPCR and Western blotting", "result": "significantly higher α-SMA levels"},
      {"measurement": "myofibroblast numbers in the infarct area versus saline", "setting": "infarct area; two weeks post-MI", "result": "more than four-fold higher; also recorded: four-fold more myofibroblasts"}
    ]}
  ]
}
